For series [1], the system named is NO production induced by LPS in BV-2 cells. Briefly: Inhibition of LPS-induced NO production in BV-2 cells (Griess method). The series is classed as cell-based. As to conditions: for IC50: BV-2 cells, 100 ng/mL LPS, 48 h, Griess reaction, mean ± SD, n = 3; for Suppression of NO generation (result in words): LPS-triggered BV-2 cells, Griess method. The procedure:
To assess the potential capabilities of all modified products in counteracting neuroinflammation, we measured their suppressive effects on NO generation within LPS-triggered BV-2 cells using the Griess method.
(§1) NO production was assessed indirectly using the Griess reaction by measuring nitrite concentration in a culture medium. BV-2 cells were cultured in Dulbecco’s Modified Eagle Medium, supplemented with 10% FBS, 100 units/mL of penicillin, and 100 μg/mL of streptomycin. These cells were seeded in 96-well plates at a density of 8 × 10^4 cells/well and incubated for 24 h. Post incubation, they were exposed to 100 ng/mL of LPS alongside different compound concentrations for 48 h. A mixture of 100 μL culture supernatant and Griess reagent was left at room temperature for 10 min, with absorbance later read at 570 nm. L-NMMA served as the positive control. Cell viability was determined using the MTT assay, and experiments were conducted in triplicate. The IC50 for NO production inhibition was computed using GraphPad Prism 7.00 software.
For orientation: Griess reagent forms a coloured azo dye with nitrite.

Series [2] is described as follows: Cell viability of BV-2 cells (MTT assay). The series is classed as cell-based. More on the design: concentration or dose not given beside the values. As to conditions: mouse, mean ± SD, n = 3. As to the method:
as §1

Structures are written as SMILES. Entries after “also recorded” stand apart in the source; their conditions may differ.

Consider 20 compounds from PMC10745867, “Biotransformation of Ursonic Acid by Aspergillus ochraceus and Aspergillus oryzae to Discover Anti-Neuroinflammatory Derivatives” (Molecules, 2023).

Usually IC50 stands for the midpoint of a concentration-inhibition curve. Broadly, the viability is a read-out of living cells in per cent, often relative to untreated cells. Turning to `C[C@H]1[C@H](C)CC[C@]2(C(=O)O)CC[C@]3(C)C(=CC[C@@H]4[C@@]5(C)CCC(=O)C(C)(C)[C@@H]5CC[C@]43C)[C@H]12` [Compound 1, Ursonic acid], half-maximal inhibition in series [1] (Mus musculus, BV-2, 48 h) (IC50) required 84.7 ± 3.22 µM. Besides, the viability at 48 h in series [2] was 98.8 ± 3.61%.
The like results for `C[C@H]1[C@H](C)C2C3=CCC4[C@@]5(C)CCC(=O)C(C)(C)C5CC[C@@]4(C)[C@]3(C)CC[C@@]2(C(=O)O)C[C@@H]1O` (stereo partly drawn) [Compound 2, 3-oxo-21β-hydroxy-12-en-urs-28-oic acid] were, in that order, 38.2 ± 4.09 µM and 101 ± 2.45%.
The compound `C[C@H]1[C@H](C)C2C3=CCC4[C@@]5(C)CCC(=O)C(C)(C)C5C[C@H](O)[C@@]4(C)[C@]3(C)CC[C@@]2(C(=O)O)C[C@@H]1O` (stereo partly drawn) [Compound 3, 3-oxo-7β,21β-dihydroxy-12-en-28-oic acid] registered an IC50 in series [1] (Mus musculus, BV-2, 48 h) of 20.9 ± 2.13 µM. Besides, in series [2], the viability at 48 h turned out to be 100 ± 3.92%.
Turning to `C[C@@H]1C(=O)C[C@]2(C(=O)O)CC[C@]3(C)C(=CCC4[C@@]5(C)CCC(=O)C(C)(C)C5CC[C@]43C)C2[C@H]1C` (stereo partly shown) [Compound 4, 3,21-dioxo-urs-12-en-28-oic acid], in series [1], the “Suppression of NO generation (result in words)” value (shortened to “Suppression of NO generation”) is given as “did not showcase any suppression capabilities”. This compound yielded an IC50 in series [1] (Mus musculus, BV-2, 48 h) of more than 100 µM. Besides, the viability at 48 h in series [2] was 104 ± 3.18%.
Usually melting point stands for the temperature of the solid-liquid transition. The compound `CC1C(=O)CC2(C(=O)O)CCC3(C)C(=CCC4C5(C)CCC(=O)C(C)(C)C5CC(O)C43C)C2C1C` (stereo not drawn) [Compound 5, 3,21-dioxo-7β-hydroxy-urs-12-en-28-oic acid] returned a melting point of 251 to 254 °C. This compound registered an IC50 in series [1] (Mus musculus, BV-2, 48 h) of 52.8 ± 3.34 µM. The viability at 48 h in series [2] worked out at 101 ± 4.11%.
`C[C@@H]1CC[C@]2(C(=O)O)CC[C@]3(C)C(=CC(=O)C4[C@@]5(C)CCC(=O)C(C)(C)C5CC[C@]43C)C2[C@H]1C` (stereo partly shown) [Compound 6, 3,11-dioxo-12-en-urs-28-oic acid] came in with an IC50 in series [1] (Mus musculus, BV-2, 48 h) of 50.2 ± 3.16 µM. The viability at 48 h in series [2] is 105 ± 4.23%.
Consider `COC1C=C2C3C(C)C(C)C(O)CC3(C(=O)O)CCC2(C)C2(C)CCC3C(C)(C)C(=O)CCC3(C)C12` (stereo not drawn) [Compound 7, 3-oxo-11α-methoxy-21β-hydroxy-urs-12-en-28-oic acid], for which the melting point was in the range of 268 to 271 °C. In addition, the IC50 in series [1] (Mus musculus, BV-2, 48 h) amounted to 11.6 ± 2.01 µM. Further, the viability at 48 h in series [2] came out at 99.2 ± 3.72%.
`CC1C(O)CC23CCC4(C)C5(C)CCC6C(C)(C)C(=O)CCC6(C)C5C=CC4(OC2=O)C3C1C` (stereo not drawn) [Compound 8, 3-oxo-21β-hydroxy-urs-11-en-13β,28β-lactone]: the melting point is 245 to 247 °C. In addition, in series [1], the “Suppression of NO generation” value is “did not showcase any suppression capabilities; also recorded: did not exhibit any inhibitory activities”. The same compound returned an IC50 in series [1] (Mus musculus, BV-2, 48 h) of more than 100 µM. The viability at 48 h in series [2] was determined as 102 ± 3.54%.
In turn, `CC1C(O)CC23CCC4(C)C(C=CC5C6(C)CCC(=O)C(C)(C)C6CC(O)C54C)(OC2=O)C3C1C` (stereo not drawn) [Compound 9, 3-oxo-7β,21β-dihydroxy-urs-11-en-13β,28β-lactone] came in with a melting point of 261 to 265 °C. Also, the “Suppression of NO generation” value in series [1] is reported as “did not showcase any suppression capabilities; also recorded: did not exhibit any inhibitory activities”. The same compound registered an IC50 in series [1] (Mus musculus, BV-2, 48 h) of more than 100 µM. For the same compound, the viability at 48 h in series [2] turned out to be 104 ± 3.86%.
For the compound `COC1=CCC2(C)C(CCC3(C)C2CC=C2C4C(C)C(C)CCC4(C(=O)O)CCC23C)C1(C)C` (stereo not shown) [Compound 10, 3-methoxy-urs-2,12-dien-28-oic acid], the melting point fell in the range of 284 to 288 °C. This compound also yielded an IC50 in series [1] of 8.23 ± 2.61 µM. Moreover, the IC50 in series [1] (Mus musculus, BV-2, 48 h) was found to be 8.2 µM. Further, the viability at 48 h in series [2] turned out to be 104 ± 4.05%.
In turn, `C[C@@H]1CC[C@]2(C(=O)O)CC[C@]3(C)C(=CCC4[C@@]5(C)CCC(=O)C(C)(C)C5CC[C@]43C)C2[C@]1(C)O` (stereo partly drawn) [Compound 11, 3-oxo-19α-hydroxy-12-en-urs-28-oic acid] gave an IC50 in series [1] (Mus musculus, BV-2, 48 h) of 42.5 ± 3.7 µM. Further, the viability at 48 h in series [2] came to 101 ± 3.42%.
On to `C[C@@H]1CC[C@]2(C(=O)O[C@@H]3O[C@H](CO)[C@@H](O)[C@H](O)[C@H]3O)CC[C@]3(C)C(=CCC4[C@@]5(C)CCC(=O)C(C)(C)C5CC[C@]43C)C2[C@H]1C` (stereo partly drawn) [Compound 12, ursonic acid-28-O-β-D-glucopyranosyl ester], for which the IC50 in series [1] (Mus musculus, BV-2, 48 h) was found to be 31.1 ± 3.98 µM. The viability at 48 h in series [2] turned out to be 98.2 ± 4.37%.
`CC1C(O)CC23CCC4(C)C5(C)CCC6C(C)(C)C(=O)CCC6(C)C5C5OC5C4(OC2=O)C3C1C` (stereo not drawn) [Compound 13, 3-oxo-21β-hydroxyl-11β,12β-epoxyl-urs-13β,28β-lactone] displayed a melting point of 257 to 263 °C. For the same compound, the IC50 in series [1] (Mus musculus, BV-2, 48 h) came out at 15.2 ± 3.07 µM. The viability at 48 h in series [2] is 103 ± 3.59%.
For `CC1C(O)CC23CCC4(C)C5(C)CCC6C(C)(C)C(=O)CC(O)C6(C)C5C5OC5C4(OC2=O)C3C1C` (stereo not drawn) [Compound 14, 3-oxo-1β,21β-dihydroxyl-11β,12β-epoxyl-urs-13β,28β-lactone] the same measures were 278 to 280 °C, 22.6 ± 3.44 µM and 104 ± 4.92%.
`CC1C(O)CC23CCC4(C)C5(C)C(O)CC6C(C)(C)C(=O)CCC6(C)C5C5OC5C4(OC2=O)C3C1C` (stereo not drawn) [Compound 15, 3-oxo-7α,21β-dihydroxyl-11β,12β-epoxyl-urs-13β,28β-lactone] displayed a melting point of 270 to 274 °C. This compound came in with an IC50 in series [1] (Mus musculus, BV-2, 48 h) of 36.6 ± 2.33 µM. Also, in series [2], the viability at 48 h was 102 ± 3.18%.
`C[C@H]1[C@H](C)C2[C@@]3(CC[C@@]4(C)[C@@]5(C)C([C@H]6O[C@H]6[C@]24OC3=O)[C@@]2(C)CCC(=O)C(C)(C)C2C[C@@H]5O)C[C@@H]1O` (stereo partly drawn) [Compound 16, 3-oxo-7β,21β-dihydroxyl-11β,12β-epoxyl-urs-13β,28β-lactone] showed a melting point of 268 to 273 °C. In addition, the IC50 in series [1] was 6.86 ± 3.52 µM. This compound displayed an IC50 in series [1] (Mus musculus, BV-2, 48 h) of 6.9 µM. Besides, the viability at 48 h in series [2] stood at 97.8 ± 4.75%.
In turn, `CC1C(=O)CC23CCC4(C)C5(C)C(O)CC6C(C)(C)C(=O)CCC6(C)C5C5OC5C4(OC2=O)C3C1C` (stereo not drawn) [Compound 17, 3,21-dioxo-7β-hydroxyl-11β,12β-epoxyl-urs-13β,28β-lactone] returned a melting point of 247 to 249 °C. In addition, half-maximal inhibition in series [1] (Mus musculus, BV-2, 48 h) (IC50) was put at 40.8 ± 3.26 µM. The viability at 48 h in series [2] was found to be 100 ± 3.54%.
The like results for `CC1C(O)CC23CCC4(C)C5(C)CCC6C(C)(C)C(=O)C=CC6(C)C5C5OC5C4(OC2=O)C3C1C` (stereo not drawn) [Compound 18, 3-oxo-21β-hydroxyl-11β,12β-epoxyl-urs-1-ene-13β,28β-lactone] were, in that order, 242 to 245 °C, 17.4 ± 2.72 µM and 103 ± 3.26%.
In turn, `CC1=C2C(C3OC3C34OC(=O)C5(CCC23C)CC(O)C(C)C(C)C54)C2(C)CCC(=O)C(C)(C)C2C1` (stereo not drawn) [Compound 19, 3-oxo-21β-hydroxyl-7-methyl-11β,12β-epoxyl-7-ene-26-norurs-13β,28β-lactone] registered a melting point of 282 to 284 °C. This compound also had an IC50 in series [1] of 5.25 ± 3.19 µM. In series [1] (Mus musculus, BV-2, 48 h), this compound showed an IC50 of 5.3 µM. In series [2], the viability at 48 h was determined as 103 ± 3.03%.
In series [1] (Mus musculus, BV-2, 48 h), `[H]/N=C(/NC)NCCC[C@H](N)C(=O)O` [L-NMMA, reference compound] gave an IC50 of 28.2 ± 2.97 µM. In addition, in series [2], the viability at 48 h worked out at 101 ± 4.36%.
